Patent publication US20120010075A1 (priority 2009, published 2012)
Read-outs that look alike come from different tables or passages of the source.

What was measured:
Format in all cases: cell-based
[1] = system: Leptosphaeria nodorum (LEPTNO); assay: Isolated metal-hydrazone complexes versus parent hydrazones, in vitro, Leptosphaeria nodorum (Example 31, Table 7); conditions: Parastagonospora nodorum; 0.1 μg/mL; copper-minus medium; 72 h
[2] = system: Septoria tritici isolate USA-184; assay: In vitro fungitoxicity of hydrazones with and without copper towards Septoria tritici (Example 30, Table 5); conditions: Zymoseptoria tritici, 0.05 μg/mL
Phytophthora capsici = assay: In vitro fungitoxicity of hydrazones with and without copper towards Phytophthora capsici (Example 28, Table 3); conditions: 0.050 μg/mL, 48 h

In the case of `O=C(N/N=C/c1cc(Cl)cc(Cl)c1O)c1ccccc1` [Example 16], the inhibition at 0.1 µg/mL [1] is reported as 19.9%, the inhibition at 0.05 µg/mL ([2]; Colby formula, CuCl2, read-out: % Inhibition Plus copper Predicted) is reported as 35.8% and the inhibition at 0.05 µg/mL ([2]; copper-minus medium, 90 h, read-out: % Inhibition Minus copper Observed) is reported as 35.8%. For the same molecule, the inhibition at 0.05 µg/mL ([2]; copper-plus medium CuCl2, 90 h, read-out: % Inhibition Plus copper Observed) was 93.6%, the “% Inhn Plus copper Observed” value (Phytophthora capsici; copper-plus AS medium (CuCl2, 50 μM)) was 91.9% and the inhibition of growth at 0.05 µg/mL (Phytophthora capsici; Phytophthora capsici, copper-minus AS medium, read-out: % Inhn Minus copper Observed) was 0%.
